Results reported in article PMC11899342, “Novel Triazeneindole Antibiotics: Synthesis and Hit-to-Lead Optimization” (International Journal of Molecular Sciences, 2025).
≈ marks a conversion by molar mass, not a printed value. Like-named read-outs stand apart in the source and are kept apart here.

Assays:
[1] = test system: HepG2 human liver carcinoma cells; assay: MTT cytotoxicity (hepatotoxicity) on HepG2; format: cell-based
Protocol: (§1) The primary screening of 22 substances was performed on human embryonic fibroblasts (HEFs). […] The HepG2 cell line was obtained from the American Type Culture Collection (ATCC cat. # HB-8065). The primary HEF cells (normal human embryonic fibroblasts) were derived from human embryonic stem cells. The cells were cultured in DMEM/F12 (1:1) medium containing 10% fetal bovine serum (Invitrogen, Carlsbad, CA, USA) at 37 °C and 5% CO2, according to standard mammalian tissue culture protocols and sterile technique. […] The incubation time with the substance was 24 h for all substances and cell lines. Cell detachment by trypsin, centrifugation, and counting in a hemocytometer were performed 16 h before the addition of the substance. For correct counting of the HepG2 cells, the cell suspension was passed through a syringe needle to get rid of cell aggregates. The cells were placed in the wells of a 96-well plate. The number of cells was selected according to the properties of the cell line and the final optical density in the experiment. Fibroblasts and hepatocytes were used in the amount of 10 thousand cells per well in 100 μL of DMEM/F12 medium supplemented with 10% fetal bovine serum. The substances were added to 100 µL of medium in the wells so that the final concentrations were 50, 25, 12.5, 6.25, 3.125, and 1.62 mg/L. The final well volume was 200 µL. The medium containing fetal bovine serum, without added substances, was used as a negative control. After 24 h, excessive amounts of medium were discarded. A total of 30 µL of MTT solution (5 mg/mL in PBS) was added to each well. After the precipitation of formazan crystals (3 h incubation), they were dissolved using 100 μL of dimethyl sulfoxide. The optical density (OD) was measured at 570 nm using a microplate reader (Eppendorf). For every condition, the cell viabilities were assessed in at least three independent experiments for every cell culture. Cell survival was calculated using the following formula:(OD of treated cells − OD blank)/(OD of control cells − OD blank) × 100%, where OD blank represents the OD values in wells without cells but with the addition of the MTT and DMSO solutions. The results were presented in the form of cytotoxicity curves, and the graphs were also plotted in a Microsoft Excel program; the calculation of the IC50 half-maximal inhibition concentration values was performed in a GraphPad Prism 6.0 (GraphPad Software Inc., San Diego, CA, USA) program, based on the equations of the cytotoxicity curves.

MRSA clinical isolates = assay: MIC by broth microdilution against multidrug-resistant MRSA clinical isolates; format: cell-based, Staphylococcus aureus; conditions: for MIC Range Against 8 MRSA Strains: 8 multidrug-resistant MRSA clinical isolates, tested 0.125-1 mg/L; for MIC: Staphylococcus aureus, MRSA
Protocol: Clinical MRSA isolates with multidrug resistance were obtained from the collection of the Research Institute of Antimicrobial Chemotherapy, Smolensk State Medical Academy.
The MICs were determined using a broth microdilution method according to [42]. Briefly, serial dilutions of the tested compounds in 50 µL of Mueller Hinton broth (BD) were prepared in 96-well microplates. The antibiotics vancomycin and linezolid (Sigma-Aldrich, St. Louis, MO, USA) were used as a positive control. Bacterial suspensions of the tested MRSA strains were prepared in the Mueller Hinton broth (BD) with a concentration 1 × 10^6 CFU/mL, and then 50 µL aliquots were added to the prepared microplates. The final concentrations of the antibiotics in the wells were 1, 0.5, 0.25, and 0.125 mg/L, for the tested compounds, and 2 mg/L for vancomycin and linezolid. Negative control (lack of bacterial cells) and growth control (lack of compound) wells were included in all plates. The microplates were incubated at 37 °C for 18 h. The growth was assessed visually after incubation, and the MIC was assumed as the lowest compound concentration at which a noticeable growth of the microorganisms was inhibited (no visible growth). All experiments were conducted in triplicate.

MRSA = assay: Selectivity index (average IC50 on eukaryotic cells / average MIC on MRSA); format: cell-based, Staphylococcus aureus; conditions: average IC50 on eukaryotic cells divided by average MIC on MRSA
Protocol: The selectivity index was calculated for each compound as the average IC50 on eukaryotic cells divided by the average MIC on MRSA (Table 2).

[2] = test system: human embryonic fibroblasts (HEFs); assay: MTT cytotoxicity on human embryonic fibroblasts; format: cell-based; conditions: 24 h, ND = non-toxic in tested concentrations (up to 50 mg/L); for IC50: Homo sapiens, Fibroblast
Protocol: as §1

[3] = Solubility in water by HPLC; format: physicochemical; conditions: for solubility at 5 min: water, kinetic from dmso stock
Protocol: The solubility of the compounds in water was assessed using HPLC analysis. Two 1.0 mg portions of the test compounds were dissolved in 10 μL of dimethyl sulfoxide; 1.0 mL of acetonitrile was added to one sample (standard), and 1.0 mL of water was added to the second sample (tested sample). Both vials were mixed in a shaker for 5 min, then centrifuged at 10,000 rpm for 5 min. The supernatants were collected and analyzed using Agilent 1290 Infinity (Agilent Technologies, Santa Clara, CA, USA) with a YMC-Triart C18 50 × 2.0 mm, 1.9 μm column. The concentration of the test compound in water was determined by comparing the peak areas of the standard (concentration 1.0 mg/mL) and the tested sample.

Caco-2 cells = assay: Caco-2 cell monolayer permeability; format: in vitro ADME, human
Protocol: The MultiScreen Caco-2 (ATCC cat. # HTB-37) test system (Millipore, St. Charles, MO, USA) was used to study the transport through a cell monolayer, according to the manufacturer’s instructions. Briefly, a study of transport from the apical membrane to the basolateral (A-B) area and in the opposite direction (B-A) was carried out on a 21-day culture of Caco-2 at a 1 µM concentration of the tested compound for 2 h. Monolayer integrity was verified by measuring electrical resistance (TEER) using a Millicell-ERS instrument. A TEER value of at least 3 KOhm/well was determined to be acceptable.

[4] = read-out: Solubility in water, mass concentration
[5] = read-out: Solubility in water, molar concentration
[6] = Caco-2, first value: A-B / apical

| Molecule | MIC Range Against 8 MRSA Strains (MRSA clinical isolates) [µg/mL] | IC50 [2] [µg/mL] | solubility at 5 min [3, 4] [µg/mL] | solubility at 5 min [3, 5] [µM] | Papp A-B (Caco-2 cells; Caco-2, 1 µM, 2 h) | Mass balance (Caco-2 cells; [6]) [%] | also measured |
| --- | --- | --- | --- | --- | --- | --- | --- |
| CCOC(=O)c1[nH]c2cc(F)ccc2c1/N=N/N(C)CCN(C)C [BX-SI044, Ethyl (E)-3-(3-(2-(dimethylamino)ethyl)-3-methyltriaz-1-en-1-yl)-6-fluoro-1H-indole-2-carboxylate] | 0.25 to 1 |  |  |  |  |  | IC50 HepG2 ([1]; 24 h): 13 µg/mL (≈ 38.8 µM); Selectivity Index (MRSA): 27; IC50 HEF [2]: 19 µg/mL (≈ 56.7 µM); Solubility in water, mass concentration [3]: 17.55 µg/mL (≈ 52.3 µM) |
| CCOC(=O)c1[nH]c2cc(F)ccc2c1/N=N/N1CCC(C)CC1 [BX-SI045, Ethyl (E)-6-fluoro-3-((4-methylpiperidin-1-yl)diazenyl)-1H-indole-2-carboxylate] | 0.25 to 0.5 | 29 (≈ 87.2 µM) | 2.77 | 10 |  |  | IC50 ([1]; Homo sapiens, HepG2, 24 h): 22 µg/mL (≈ 66.2 µM); MIC (MRSA clinical isolates; 8 MRSA strains, read-out: lowest MIC values against most tested strains): 0.25 µg/mL (≈ 0.752 µM); MIC (MRSA clinical isolates; Figure 6, MRSA strain 2, read-out: MIC against 8 MRSA strains): 0.5 µg/mL (≈ 1.5 µM); MIC (MRSA clinical isolates; Figure 6, MRSA strain 7, read-out: MIC against 8 MRSA strains): 0.5 µg/mL (≈ 1.5 µM); MIC (MRSA clinical isolates; Figure 6, MRSA strain 8, read-out: MIC against 8 MRSA strains): 0.25 µg/mL (≈ 0.752 µM); MIC (MRSA clinical isolates; Figure 6, MRSA strain 9, read-out: MIC against 8 MRSA strains): 0.25 µg/mL (≈ 0.752 µM); MIC (MRSA clinical isolates; Figure 6, MRSA strain 13, read-out: MIC against 8 MRSA strains): 0.5 µg/mL (≈ 1.5 µM); MIC (MRSA clinical isolates; Figure 6, MRSA strain 21, read-out: MIC against 8 MRSA strains): 0.25 µg/mL (≈ 0.752 µM); MIC (MRSA clinical isolates; Figure 6, MRSA strain 48, read-out: MIC against 8 MRSA strains): 0.25 µg/mL (≈ 0.752 µM); MIC (MRSA clinical isolates; Figure 6, MRSA strain 50, read-out: MIC against 8 MRSA strains): 0.25 µg/mL (≈ 0.752 µM); Selectivity Index (MRSA): 74 |
| CCOC(=O)c1[nH]c2ccccc2c1/N=N/N1CCC(C)CC1 [BX-SI055, Ethyl (E)-3-((4-methylpiperidin-1-yl)diazenyl)-1H-indole-2-carboxylate] | >1 | 16 (≈ 50.9 µM) | 1.22 | 4 |  |  |  |
| CCOC(=O)c1[nH]c2ncccc2c1/N=N/N1CCN(C)CC1 [BX-SI057, Ethyl (E)-3-((4-methylpiperazin-1-yl)diazenyl)-1H-pyrrolo[2,3-b]pyridine-2-carboxylate] | 0.5 to 1 | 3 (≈ 9.48 µM) | 16.7 | 53 |  |  |  |
| CCOC(=O)c1[nH]c2ncccc2c1/N=N/N1CCC(C)CC1 [BX-SI058, Ethyl (E)-3-((4-methylpiperidin-1-yl)diazenyl)-1H-pyrrolo[2,3-b]pyridine-2-carboxylate] | 1 (≈ 3.17 µM) | 12 (≈ 38 µM) | 0.399 | 1 |  |  |  |
| CC(C)NCC(O)COc1cccc2ccccc12 (centres unmarked) [Propranolol, propranolol] |  |  |  |  | 44.6 10^-6 sm/s | 91.7 |  |
| CNC(=C[N+](=O)[O-])NCCSCc1ccc(CN(C)C)o1 [Ranitidine, ranitidine] |  |  |  |  | 1.48 10^-6 sm/s | 96 |  |
| rhodamine |  |  |  |  | 1.14 10^-6 sm/s | 92.1 | Asymmetry index (Caco-2 cells; Caco-2): 3.20; Papp B-A (Caco-2 cells; Caco-2, 1 µM, 2 h): 3.65 10^-6 sm/s; Mass balance (Caco-2 cells; Caco-2, second value: B-A / basolateral): 95.8% |
